Measurements as given in patent US8019550B2, “Drug discovery method” (Keddem Bioscience Ltd., priority 2002, dated 2011).

Molecular target: T1, HIV-1 Protease (Human immunodeficiency virus type 1 group M subtype B, UniProt P04585)
T1 construct: effect on HIV-1 Protease
Assay: assay of selected molecules for activity (effect on HIV-1 Protease)
Type: biochemical
Conditions: various concentrations (between 10 and 1000 micro-molar)
Experimental: A set of molecules including the triangle measures were selected and physically assayed and shown to have the expected binding to HIV-1 Protease.
The triplets were used as a query input for a search in MDL's ACD-SC (available chemical directory for screening).
All of molecules were actually assayed and appeared to show activity (effect on HIV-1 Protease) at various concentrations (between 10 and 1000 micro-molar). […] Also molecules 34-39 were assayed, with no activity shown, as expected.

SMILES | activity (effect on HIV-1 Protease)
O=C1C2C(c3ccccc3)NC(c3ccccc3)C1C(c1ccccc1)OC2c1ccccc1 (centres unmarked) [compound 7] | active
Cc1c(-c2ccccc2)c(=O)n(C)c2c1c(=O)n(-c1ccccc1)c(=O)n2-c1ccccc1 [compound 27] | active
